In patent US20250367631A1, “TWO PHASE FLOWS FOR REACTIONS AND SEPARATIONS” (University of Delaware, priority 2024, published 2025):
Like-named read-outs stand apart in the source and are kept apart here.

Columns and labels:
[1] = Organic solvent properties used in the CFD model (Table 2); type: physicochemical; conditions: for Density / Dynamic viscosity: organic solvent; for Interfacial Tension: organic solvent / water
Description: Principal component analysis (PCA) was used to identify the number of features required to capture the system's behavior. Considering material properties and dimensionless groups of both phases gave a total of 26 features (See Table 1 and definitions in the Supplemental Information (SI) herein below). The dimensionless groups were based on previous work. See, e.g., Chen, supra; Zhao, Y.; Chen, G.; Yuan, Q. “Liquid-liquid two-phase flow patterns in a rectangular microchannel.” AIChE Journal 2006, 52 (12), 4052-4060; Yagodnitsyna, A. A.; Kovalev, A. V.; Bilsky, A. V. “Flow patterns of immiscible liquid-liquid flow in a rectangular microchannel with T-junction.” Chemical Engineering Journal 2016, 303, 547-554; Zhao, C. X.; Middelberg, A. P. J. “Two-phase microfluidic flows.” Chemical Engineering Science 2011, 66 (7), 1394-1411. Apart from PCA, feature importance can rank features for classifying flowpatterns. A clustered covariance matrix may be employed to group dependent variables. We implemented these algorithms using the sklearn library in Python.
FIG. 11a, b, d and FIG. 11c maps the conditions for our experimental and computational flow patterns, respectively. As the diameter increases, different flow conditions (total volumetric flow rate, org/aq (v/v) ratio, various organic solvents) lead to varying patterns. […] For larger diameters, the parallel flow becomes prominent (FIG. 11c). […] At lower experimental flow rates (0.1-10 ml/min), no irregular flow is observed.

[2] = per Chen et al., cited from earlier work; for Diffusivity: HMF in the organic solvent; for Partition Coefficient: HMF, organic solvent/water
[3] = experimentally shown, Wang et al., cited from earlier work

Density [1] [kg m^−3]	Dynamic viscosity [1]	Interfacial Tension [1] [N m^−1]	Structure (SMILES)	Diffusivity [2]	Partition Coefficient [2]	KHMF (HMF partition coefficient) ([3]; 25° C.)	KHMF (HMF partition coefficient) ([3]; 150° C.)
812	3.47 × 10^−3 Pa · s	0.0034	CCCC(C)O (centres unmarked) [2-pentanol]	3.81 × 10^−10 m^2/s	1.3 ± 0.07		
900	4.41 × 10^−4 Pa · s	0.0074	CCOC(C)=O [EtAc, ethyl acetate]	2.87 × 10^−9 m^2/s	1.4 ± 0.05		
684	5.85 × 10^−4 Pa · s	0.0157	CC(=O)CC(C)C [MIBK, methyl isobutyl ketone]	2.43 × 10^−9 m^2/s	1.1 ± 0.03		
			Cc1cccc(O)c1 [m-cresol]			20.6	4.2
